According to US20150105252A1, “SUBSTITUTED PYRAZOLES AS HERBICIDES” (E I DU PONT DE NEMOURS AND COMPANY, priority 2013, published 2015):

Legend:
Italian ryegrass [1] = assay: Test A preemergence; assay type: in vivo, Lolium multiflorum; details: for Italian Ryegrass plant response rating (0 to 100 scale): 125 g ai/ha, visual injury approx. 10 days after treatment; for Italian Ryegrass plant response rating: 500 g ai/ha, visual injury after approx. 10 days, 0 to 100 scale (0 no effect, 100 complete control)
How it was run: (§1)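 After sowing in a sand–loam mix, pots received compound preemergence by directed soil spray, or postemergence once plants reached the one- to two-leaf stage (2–10 cm). Formulation contained surfactant in a non-phytotoxic solvent. Injury was scored visually after ~10 greenhouse days, 0–100 scale.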

corn = assay: Test A postemergence; assay type: in vivo, Zea mays; details: Postemergence
How it was run: as §1

foxtail, giant [2] = assay: Test A preemergence; assay type: in vivo, Setaria faberii; details: preemergence; for Foxtail, Giant plant response rating (0 to 100 scale): 125 g ai/ha, visual injury approx. 10 days after treatment; for Foxtail, Giant plant response rating: 500 g ai/ha, visual injury after approx. 10 days, 0 to 100 scale (0 no effect, 100 complete control)
How it was run: as §1

common ragweed [3] = assay: Test A postemergence; assay type: in vivo, Ambrosia elation; details: Postemergence
How it was run: as §1

blackgrass = assay: Test A postemergence; assay type: in vivo, Alopecurus myosuroides; details: Postemergence
How it was run: as §1

pigweed [4] = assay: Test A preemergence; assay type: in vivo, Amaranthus retroflexus; details: preemergence, 125 g ai/ha, visual injury approx. 10 days after treatment
How it was run: as §1

barnyardgrass [5] = assay: Test A preemergence; assay type: in vivo, Echinochloa crus-galli; details: preemergence; for Barnyardgrass plant response rating (0 to 100 scale, 0 is no effect, 100 is complete control): 125 g ai/ha, visual injury approx. 10 days after treatment; for Barnyardgrass plant response rating: 500 g ai/ha, visual injury after approx. 10 days, 0 to 100 scale (0 no effect, 100 complete control)
How it was run: as §1

barnyardgrass [6] = assay: Test A postemergence; assay type: in vivo, Echinochloa crus-galli; details: Postemergence
How it was run: as §1

pigweed [7] = assay: Test A postemergence; assay type: in vivo, Amaranthus retroflexus; details: Postemergence
How it was run: as §1

kochia [8] = assay: Test A preemergence; assay type: in vivo, Kochia scoparia; details: 125 g ai/ha, visual injury approx. 10 days after treatment
How it was run: as §1

ducksalad = assay: Test B flood; assay type: in vivo, Heteranthera limosa; details: 250 g ai/ha, visual rating on 0 to 100 scale (0 no effect, 100 complete control), 13 to 15 days
How it was run: (§2)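 Flooded-pot test: compound dosed into 3 cm of standing water above soil when plants had two leaves. Visual control ratings (0–100) versus untreated plants after 13–15 d.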

barnyardgrass [9] = assay: Test B flood; assay type: in vivo, Echinochloa crus-galli; details: 250 g ai/ha, visual rating on 0 to 100 scale (0 no effect, 100 complete control), 13 to 15 days
How it was run: as §2

galium = assay: Test A postemergence; assay type: in vivo, Galium aparine; details: Postemergence
How it was run: as §1

wheat = assay: Test A postemergence; assay type: in vivo, Triticum aestivum; details: Postemergence
How it was run: as §1

rice = assay: Test B flood; assay type: in vivo, Oryza sativa; details: 250 g ai/ha, visual rating on 0 to 100 scale (0 no effect, 100 complete control), 13 to 15 days
How it was run: as §2

kochia [10] = assay: Test A postemergence; assay type: in vivo, Kochia scoparia; details: Postemergence
How it was run: as §1

foxtail, giant [11] = assay: Test A postemergence; assay type: in vivo, Setaria faberii; details: Postemergence
How it was run: as §1

common ragweed [12] = assay: Test A preemergence; assay type: in vivo, Ambrosia elation; details: for Common Ragweed plant response rating (0 to 100 scale): 125 g ai/ha, visual injury approx. 10 days after treatment; for Common Ragweed plant response rating: 500 g ai/ha, visual injury after approx. 10 days, 0 to 100 scale (0 no effect, 100 complete control)
How it was run: as §1

sedge, umbrella = assay: Test B flood; assay type: in vivo, Cyperus difformis; details: 250 g ai/ha, visual rating on 0 to 100 scale (0 no effect, 100 complete control), 13 to 15 days
How it was run: as §2

Italian ryegrass [13] = assay: Test A postemergence; assay type: in vivo, Lolium multiflorum; details: Postemergence
How it was run: as §1

[14] = 125 g ai/ha, 0 to 100 scale, 0 no effect, 100 complete control
[15] = 500 g ai/ha, 0 to 100 scale (0 no effect, 100 complete control)

CCc1cc(C(=O)NC2CC2)nn1Cc1cc(C(F)(F)F)nn1C(C)C [Compound 212]
10: Corn plant response rating (corn; [15]) | Common Ragweed plant response rating (common ragweed [3]; [15]) | Blackgrass plant response rating (blackgrass; [15]) | Barnyardgrass plant response rating (barnyardgrass [6]; [15]) | Wheat plant response rating (wheat; [15]) | Kochia plant response rating (kochia [10]; [14]) | Foxtail, Giant plant response rating (foxtail, giant [11]; [15]) | Italian Ryegrass plant response rating (Italian ryegrass [13]; [15])
20: Pigweed plant response rating (0 to 100 scale) (pigweed [4]) | Galium plant response rating (galium; [14])
80: Pigweed plant response rating (pigweed [7]; [15])
70: Kochia plant response rating (kochia [10]; [15])
0: Italian Ryegrass plant response rating (0 to 100 scale) (Italian ryegrass [1]) | Italian Ryegrass plant response rating (Italian ryegrass [1]) | Corn plant response rating (corn; [14]) | Foxtail, Giant plant response rating (0 to 100 scale) (foxtail, giant [2]) | Foxtail, Giant plant response rating (foxtail, giant [2]) | Common Ragweed plant response rating (common ragweed [3]; [14]) | Blackgrass plant response rating (blackgrass; [14]) | Barnyardgrass plant response rating (0 to 100 scale, 0 is no effect, 100 is complete control) (barnyardgrass [5]) | Barnyardgrass plant response rating (barnyardgrass [5]) | Barnyardgrass plant response rating (barnyardgrass [6]; [14]) | Kochia plant response rating (0 to 100 scale) (kochia [8]) | Plant response rating, Ducksalad (ducksalad) | Plant response rating, Barnyardgrass (barnyardgrass [9]) | Wheat plant response rating (wheat; [14]) | Plant response rating, Rice (rice) | Foxtail, Giant plant response rating (foxtail, giant [11]; [14]) | Common Ragweed plant response rating (0 to 100 scale) (common ragweed [12]) | Common Ragweed plant response rating (common ragweed [12]) | Plant response rating, Sedge, Umbrella (sedge, umbrella) | Italian Ryegrass plant response rating (Italian ryegrass [13]; [14])
40: Pigweed plant response rating (pigweed [7]; [14]) | Galium plant response rating (galium; [15])

CCc1cc(C(=O)NCC(F)(F)F)nn1Cc1cc(C(F)(F)F)nn1C(C)C [Compound 213]
0: Italian Ryegrass plant response rating (0 to 100 scale) (Italian ryegrass [1]) | Italian Ryegrass plant response rating (Italian ryegrass [1]) | Corn plant response rating (corn; [14]) | Corn plant response rating (corn; [15]) | Foxtail, Giant plant response rating (0 to 100 scale) (foxtail, giant [2]) | Foxtail, Giant plant response rating (foxtail, giant [2]) | Common Ragweed plant response rating (common ragweed [3]; [14]) | Common Ragweed plant response rating (common ragweed [3]; [15]) | Blackgrass plant response rating (blackgrass; [14]) | Blackgrass plant response rating (blackgrass; [15]) | Pigweed plant response rating (0 to 100 scale) (pigweed [4]) | Barnyardgrass plant response rating (0 to 100 scale, 0 is no effect, 100 is complete control) (barnyardgrass [5]) | Barnyardgrass plant response rating (barnyardgrass [5]) | Barnyardgrass plant response rating (barnyardgrass [6]; [14]) | Barnyardgrass plant response rating (barnyardgrass [6]; [15]) | Pigweed plant response rating (pigweed [7]; [14]) | Pigweed plant response rating (pigweed [7]; [15]) | Kochia plant response rating (0 to 100 scale) (kochia [8]) | Plant response rating, Ducksalad (ducksalad) | Plant response rating, Barnyardgrass (barnyardgrass [9]) | Galium plant response rating (galium; [14]) | Galium plant response rating (galium; [15]) | Wheat plant response rating (wheat; [14]) | Wheat plant response rating (wheat; [15]) | Plant response rating, Rice (rice) | Kochia plant response rating (kochia [10]; [14]) | Kochia plant response rating (kochia [10]; [15]) | Foxtail, Giant plant response rating (foxtail, giant [11]; [14]) | Foxtail, Giant plant response rating (foxtail, giant [11]; [15]) | Common Ragweed plant response rating (0 to 100 scale) (common ragweed [12]) | Common Ragweed plant response rating (common ragweed [12]) | Plant response rating, Sedge, Umbrella (sedge, umbrella) | Italian Ryegrass plant response rating (Italian ryegrass [13]; [14]) | Italian Ryegrass plant response rating (Italian ryegrass [13]; [15])
